Source: ChEMBL document CHEMBL4308841, “Synthesis, in vitro antiproliferative activity, and kinase inhibitory effects of pyrazole-containing diarylureas and diarylamides” (Eur J Med Chem, 2018)
pIC50: −log10 of the molar value.

Columns and labels:
[1] = test system: SK-MEL-2; experiment: Growth inhibition of human SK-MEL-2 cells assessed as cell growth at 10 uM incubated for 48 hrs by sulforhodamine B assay relative to control; assay type: functional; conditions: SK-MEL-2, 48 h, read-out: Activity
[2] = test system: SW-620; experiment: Growth inhibition of human SW620 cells incubated for 48 hrs by sulforhodamine B assay; assay type: functional, cell-based; conditions: SW-620, 48 h
[3] = test system: SNB-19; experiment: Growth inhibition of human SNB19 cells incubated for 48 hrs by sulforhodamine B assay; assay type: functional, cell-based; conditions: SNB-19, 48 h
[4] = test system: OVCAR-4; experiment: Growth inhibition of human OVCAR4 cells incubated for 48 hrs by sulforhodamine B assay; assay type: functional, cell-based; conditions: OVCAR-4, 48 h
[5] = test system: CAKI-1; experiment: Growth inhibition of human Caki1 cells incubated for 48 hrs by sulforhodamine B assay; assay type: functional, cell-based; conditions: CAKI-1, 48 h
[6] = test system: MDA-MB-231; experiment: Growth inhibition of human MDA-MB-231 cells incubated for 48 hrs by sulforhodamine B assay; assay type: functional, cell-based; conditions: MDA-MB-231, 48 h
[7] = test system: MDA-MB-468; experiment: Growth inhibition of human MDA-MB-468 cells incubated for 48 hrs by sulforhodamine B assay; assay type: functional, cell-based; conditions: MDA-MB-468, 48 h
[8] = test system: CCRF-CEM; experiment: Growth inhibition of human CCRF-CEM cells assessed as cell growth at 0.01 uM incubated for 48 hrs by sulforhodamine B assay relative to control; assay type: functional; conditions: read-out: Activity
[9] = test system: NCI-H322M; experiment: Growth inhibition of human NCI-H322M cells assessed as cell growth at 0.01 uM incubated for 48 hrs by sulforhodamine B assay relative to control; assay type: functional; conditions: read-out: Activity
[10] = test system: NCI-H522; experiment: Growth inhibition of human NCI-H522 cells assessed as cell growth at 0.01 uM incubated for 48 hrs by sulforhodamine B assay relative to control; assay type: functional; conditions: NCI-H522, 48 h, read-out: Activity
[11] = test system: COLO 205; experiment: Growth inhibition of human COLO205 cells assessed as cell growth at 0.01 uM incubated for 48 hrs by sulforhodamine B assay relative to control; assay type: functional; conditions: COLO 205, 48 h, read-out: Activity
[12] = test system: HCT-15; experiment: Growth inhibition of human HCT15 cells assessed as cell growth at 0.01 uM incubated for 48 hrs by sulforhodamine B assay relative to control; assay type: functional; conditions: HCT-15, 48 h, read-out: Activity
[13] = test system: PC-3; experiment: Growth inhibition of human PC3 cells assessed as cell growth at 0.01 uM incubated for 48 hrs by sulforhodamine B assay relative to control; assay type: functional; conditions: PC-3, 48 h, read-out: Activity
[14] = test system: SR; experiment: Growth inhibition of human SR cells assessed as cell growth at 0.1 uM incubated for 48 hrs by sulforhodamine B assay relative to control; assay type: functional; conditions: read-out: Activity
[15] = test system: A549; experiment: Growth inhibition of human A549/ATCC cells assessed as cell growth at 0.1 uM incubated for 48 hrs by sulforhodamine B assay relative to control; assay type: functional; conditions: A549, 48 h, read-out: Activity
[16] = test system: NCI-H226; experiment: Growth inhibition of human NCI-H226 cells assessed as cell growth at 0.1 uM incubated for 48 hrs by sulforhodamine B assay relative to control; assay type: functional; conditions: NCI-H226, 48 h, read-out: Activity
[17] = test system: NCI-H23; experiment: Growth inhibition of human NCI-H23 cells assessed as cell growth at 0.1 uM incubated for 48 hrs by sulforhodamine B assay relative to control; assay type: functional; conditions: NCI-H23, 48 h, read-out: Activity
[18] = test system: COLO 205; experiment: Growth inhibition of human COLO205 cells assessed as cell growth at 0.1 uM incubated for 48 hrs by sulforhodamine B assay relative to control; assay type: functional; conditions: COLO 205, 48 h, read-out: Activity
[19] = test system: SF-295; experiment: Growth inhibition of human SF295 cells assessed as cell growth at 0.1 uM incubated for 48 hrs by sulforhodamine B assay relative to control; assay type: functional; conditions: SF-295, 48 h, read-out: Activity
[20] = test system: NCI/ADR-RES; experiment: Growth inhibition of human NCI/ADR-RES cells assessed as cell growth at 0.1 uM incubated for 48 hrs by sulforhodamine B assay relative to control; assay type: functional; conditions: read-out: Activity
[21] = test system: PC-3; experiment: Growth inhibition of human PC3 cells assessed as cell growth at 0.1 uM incubated for 48 hrs by sulforhodamine B assay relative to control; assay type: functional; conditions: PC-3, 48 h, read-out: Activity
[22] = test system: Malme-3M; experiment: Growth inhibition of human MALME-3M cells assessed as cell growth at 1 uM incubated for 48 hrs by sulforhodamine B assay relative to control; assay type: functional; conditions: read-out: Activity
[23] = test system: SK-MEL-2; experiment: Growth inhibition of human SK-MEL-2 cells assessed as cell growth at 1 uM incubated for 48 hrs by sulforhodamine B assay relative to control; assay type: functional; conditions: SK-MEL-2, 48 h, read-out: Activity
[24] = test system: T47D; experiment: Growth inhibition of human T47D cells assessed as cell growth at 1 uM incubated for 48 hrs by sulforhodamine B assay relative to control; assay type: functional; conditions: read-out: Activity
[25] = test system: NCI-H322M; experiment: Growth inhibition of human NCI-H322M cells assessed as cell growth at 100 uM incubated for 48 hrs by sulforhodamine B assay relative to control; assay type: functional; conditions: read-out: Activity
[26] = test system: NCI-H460; experiment: Growth inhibition of human NCI-H460 cells assessed as cell growth at 100 uM incubated for 48 hrs by sulforhodamine B assay relative to control; assay type: functional; conditions: NCI-H460, 48 h, read-out: Activity
[27] = test system: SF-539; experiment: Growth inhibition of human SF539 cells assessed as cell growth at 100 uM incubated for 48 hrs by sulforhodamine B assay relative to control; assay type: functional; conditions: SF-539, 48 h, read-out: Activity
[28] = test system: MDA-MB-435; experiment: Growth inhibition of human MDA-MB-435 cells assessed as cell growth at 100 uM incubated for 48 hrs by sulforhodamine B assay relative to control; assay type: functional; conditions: MDA-MB-435, 48 h, read-out: Activity
[29] = test system: OVCAR-4; experiment: Growth inhibition of human OVCAR4 cells assessed as cell growth at 100 uM incubated for 48 hrs by sulforhodamine B assay relative to control; assay type: functional; conditions: OVCAR-4, 48 h, read-out: Activity
[30] = test system: UO-31; experiment: Growth inhibition of human UO31 cells assessed as cell growth at 100 uM incubated for 48 hrs by sulforhodamine B assay relative to control; assay type: functional; conditions: UO-31, 48 h, read-out: Activity
[31] = read-out: LC50 (the source's name)
[32] = read-out: pLC50 (the source's name) (converted)

Compound: O=C(Nc1cccc(-n2cc(-c3ccncc3)c(-c3cc(O)cc(Cl)c3)n2)c1)c1ccc(N2CCOCC2)c(C(F)(F)F)c1
- growth at 10 µM [1]: 22.9%
- GI50 ([2]; read-out: GI50): 2530 nM
- LC50 ([2]; read-out: LC50): > 100 µM
- TGI ([2]; read-out: TGI): 70.6 µM
- GI50 ([2]; read-out: pGI50 (converted)): 2820 nM
- LC50 ([2]; read-out: pLC50 (converted)): > 100 µM
- TGI ([2]; read-out: pTGI (converted)): 7.08 µM
- GI50 ([3]; read-out: GI50): 3.33 µM
- CC50 [3, 31]: > 100 µM
- TGI ([3]; read-out: TGI): 33.8 µM
- GI50 ([3]; read-out: pGI50 (converted)): 3.31 µM
- CC50 [3, 32]: > 100 µM
- TGI ([3]; read-out: pTGI (converted)): 33.9 µM
- GI50 ([4]; read-out: GI50): > 100 µM
- CC50 [4, 31]: > 100 µM
- TGI ([4]; read-out: TGI): > 100 µM
- GI50 ([4]; read-out: pGI50 (converted)): > 100 µM
- CC50 [4, 32]: > 100 µM
- TGI ([4]; read-out: pTGI (converted)): > 100 µM
- GI50 ([5]; read-out: GI50): 1100 nM
- CC50 [5, 31]: > 100 µM
- TGI ([5]; read-out: TGI): 60 µM
- GI50 ([5]; read-out: pGI50 (converted)): 1100 nM
- CC50 [5, 32]: > 100 µM
- TGI ([5]; read-out: pTGI (converted)): 6.03 µM
- GI50 ([6]; read-out: GI50): 327 nM
- CC50 [6, 31]: 27 µM
- TGI ([6]; read-out: TGI): 16.6 µM
- GI50 ([6]; read-out: pGI50 (converted)): 324 nM
- CC50 [6, 32]: 26.9 µM
- TGI ([6]; read-out: pTGI (converted)): 1.66 µM
- pIC50 [7]: 5.47
- GI50 ([7]; read-out: GI50): 3.42 µM
- CC50 [7, 31]: > 100 µM
- TGI ([7]; read-out: TGI): 43.3 µM
- GI50 ([7]; read-out: pGI50 (converted)): 3.39 µM
- CC50 [7, 32]: > 100 µM
- TGI ([7]; read-out: pTGI (converted)): 43.7 µM
- growth at 0.01 µM [8]: 98%
- growth at 0.01 µM [9]: 56%
- growth at 0.01 µM [10]: 50%
- growth at 0.01 µM [11]: 106%
- growth at 0.01 µM [12]: 91%
- growth at 0.01 µM [13]: 93%
- growth at 0.1 µM [14]: 98%
- growth at 0.1 µM [15]: 97%
- growth at 0.1 µM [16]: 93%
- growth at 0.1 µM [17]: 104%
- growth at 0.1 µM [18]: 104%
- growth at 0.1 µM [19]: 90%
- growth at 0.1 µM [20]: 103%
- growth at 0.1 µM [21]: 92%
- growth at 1 µM [22]: 52%
- growth at 1 µM [23]: 77%
- growth at 1 µM [24]: 80%
- growth at 100 µM [25]: 21%
- growth at 100 µM [26]: -47%
- growth at 100 µM [27]: -50%
- growth at 100 µM [28]: 8%
- growth at 100 µM [29]: 57%
- growth at 100 µM [30]: -33%

Compound: COc1cc(Cl)cc(-c2nn(-c3cccc(NC(=O)c4ccc(N5CCOCC5)c(C(F)(F)F)c4)c3)cc2-c2ccncc2)c1
- growth at 10 µM [1]: 64.9%
- GI50 ([2]; read-out: GI50): 2960 nM
- LC50 ([2]; read-out: LC50): > 100 µM
- TGI ([2]; read-out: TGI): > 100 µM
- GI50 ([2]; read-out: pGI50 (converted)): 29500 nM
- LC50 ([2]; read-out: pLC50 (converted)): > 100 µM
- TGI ([2]; read-out: pTGI (converted)): > 100 µM
- GI50 ([3]; read-out: GI50): > 100 µM
- CC50 [3, 31]: > 100 µM
- TGI ([3]; read-out: TGI): > 100 µM
- GI50 ([3]; read-out: pGI50 (converted)): > 100 µM
- CC50 [3, 32]: > 100 µM
- TGI ([3]; read-out: pTGI (converted)): > 100 µM
- GI50 ([4]; read-out: GI50): 3.97 µM
- CC50 [4, 31]: > 100 µM
- TGI ([4]; read-out: TGI): > 100 µM
- GI50 ([4]; read-out: pGI50 (converted)): 39.8 µM
- CC50 [4, 32]: > 100 µM
- TGI ([4]; read-out: pTGI (converted)): > 100 µM
- GI50 ([5]; read-out: GI50): 4400 nM
- CC50 [5, 31]: > 100 µM
- TGI ([5]; read-out: TGI): > 100 µM
- GI50 ([5]; read-out: pGI50 (converted)): 4370 nM
- CC50 [5, 32]: > 100 µM
- TGI ([5]; read-out: pTGI (converted)): > 100 µM
- GI50 ([6]; read-out: GI50): 2530 nM
- CC50 [6, 31]: > 100 µM
- TGI ([6]; read-out: TGI): 32.4 µM
- GI50 ([6]; read-out: pGI50 (converted)): 2820 nM
- CC50 [6, 32]: > 100 µM
- TGI ([6]; read-out: pTGI (converted)): 32.4 µM
- pIC50 [7]: 4.92
- GI50 ([7]; read-out: GI50): 1.21 µM
- CC50 [7, 31]: > 100 µM
- TGI ([7]; read-out: TGI): > 100 µM
- GI50 ([7]; read-out: pGI50 (converted)): 12 µM
- CC50 [7, 32]: > 100 µM
- TGI ([7]; read-out: pTGI (converted)): > 100 µM
- growth at 0.01 µM [8]: 96%
- growth at 0.01 µM [9]: 97%
- growth at 0.01 µM [10]: 94%
- growth at 0.01 µM [11]: 103%
- growth at 0.01 µM [12]: 94%
- growth at 0.01 µM [13]: 97%
- growth at 0.1 µM [14]: 91%
- growth at 0.1 µM [15]: 102%
- growth at 0.1 µM [16]: 98%
- growth at 0.1 µM [17]: 90%
- growth at 0.1 µM [18]: 100%
- growth at 0.1 µM [19]: 94%
- growth at 0.1 µM [20]: 99%
- growth at 0.1 µM [21]: 95%
- growth at 1 µM [22]: 58%
- growth at 1 µM [23]: 98%
- growth at 1 µM [24]: 93%
- growth at 100 µM [25]: 48%
- growth at 100 µM [26]: 5%
- growth at 100 µM [27]: 2%
- growth at 100 µM [28]: 42%
- growth at 100 µM [29]: 38%
- growth at 100 µM [30]: 17%
